{
  "source": "patent US10406217B2",
  "about": "“Antifugetactic agents for the treatment of cancers” (The General Hospital Corporation, priority 2004, dated 2019)",
  "key": {"[1]": {"tested_on": "B16/OVA.MSCV tumors", "settings": "naïve mice, AMD3100 1.25 mg/kg s.c. twice a day from first day after challenge, average±SD", "experimental": "(§1) For in vitro growth, 5×10^5 tumor cells were seeded in T25 flasks (Becton Dickinson, Le Pont De Claix, France). Cultures were harvested daily for 3 consecutive days and viable cell yield determined. Tumorigenicity was determined by subcutaneous (s.c.) injection of 2×10^5 viable cells into the flank of mice in a total volume of 200 μl PBS using a 27 G needle. Tumor growth was also evaluated in naïve mice challenged with B16/OVA.MSCV or B16/OVA.SDF-1-high cells and injected twice a day s.c. with the CXCR4 antagonist. AMDS3100 (1.25 mg/kg s.c., Sigma). Tumor growth was measured every three or four days using a caliper. Tumor volume was recorded as the product of two orthogonal diameters (axb; a=longest diameter; b-orthogonal width) (Hanson, J. L., et al. 2000 Immunity 13:265-276). In immunization studies, mice were injected s.c. (at multiple sites) with 1×10^5 Irradiated (8568 cGy) B16/OVA.pc cells in a volume of 200 μl at d 0 and d 10. Fourteen days after immunization, mice were challenged s.c. in both flanks with 2×10^5 B16/OVA.MSCV B16/OVA.SDF-1 high cells, and tumor growth was measured as described above (Dranoff, G., et al. 1993 Proc Natl Acad Sci USA 90:3539-3543). In some experiments, mice were immunized with B16/OVA.SDF-1-high cells and then challenged with B16/OVA.SDF-1-high or B16/OVA.SDF-1-low cells. Mice were sacrificed when one or both tumors reached 200 mm^2 in volume."}, "[2]": {"tested_on": "B16/OVA.SDF-1-high tumors", "settings": "naïve mice, AMD3100 1.25 mg/kg s.c. twice a day, average±SD", "experimental": "as §1"}, "[3]": {"target": "T1, CXCR4 (Mus musculus, UniProt P70658)", "T1 sequence (P70658 whole entry)": "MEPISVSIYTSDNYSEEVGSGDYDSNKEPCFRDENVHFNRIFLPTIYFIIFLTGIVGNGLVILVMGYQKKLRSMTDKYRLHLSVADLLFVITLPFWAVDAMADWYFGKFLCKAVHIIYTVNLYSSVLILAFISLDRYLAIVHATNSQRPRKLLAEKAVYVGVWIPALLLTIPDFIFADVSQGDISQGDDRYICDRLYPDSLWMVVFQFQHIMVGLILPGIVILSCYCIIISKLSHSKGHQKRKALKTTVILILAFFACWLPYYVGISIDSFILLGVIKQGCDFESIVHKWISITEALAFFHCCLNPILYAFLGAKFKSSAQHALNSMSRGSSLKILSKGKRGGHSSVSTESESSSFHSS", "settings": "B16/OVA.MSCV vs B16/OVA.SDF-1-high tumor, OT-I T-cells incubated with AMD3100 0.08 and 0.25 μg/ml before adoptive transfer, MRI 24 hours, mean±SD, n=3", "experimental": "(§2) In some experiments, activated OT-I CD8+ T cells were also preincubated with the CXCR4 antagonist, AMD3100, at concentrations of 0.08 and 0.25 μg/ml (15 min at RT) in a 12-well plate at a density of 1×10^7 cells/well prior to adoptive transfer (Hatse, S., et al. 2002, FEBS Lett 527:255). Survival analysis was evaluated in mice after in vivo generation of a tumor-specific memory T cell compartment (Bathe, O. F., et al. 2001, J Immunol 167:4511). 21 days after adoptive transfer of 1×10^7 OT-I CD8+ T cells (in 500 μl of HBSS via tail vein injection), two groups of mice (4 or 6 per group) were challenged s.c. in the right flank with 2×10^5 B 16/OVA.SDF-1-high cells or B16/OVA.MSCV control cells in 200 μl of HBSS using a 27 G needle (Bathe, O. F., et al. 2001, J Immunol 167:4511). […] Detectable tumor was considered to be >5 mm^2. Mice were sacrificed when tumors reached 400 mm^2 in size."}, "[4]": {"target": "T1, CXCR4", "settings": "48 hours", "experimental": "as §2\nImmunized mice and mice that received adoptive transfer of OT-I CD8+ T-cells were evaluated for T cell infiltration of tumors by immunohistochemistry. Animals were sacrificed and tumors excised with preservation of the capsule. Resected tumors were fixed in 10% neutral buffered formalin and embedded in paraffin. Serial 5 μm sections of tumors were stained with H & E or with polyclonal anti-CD3 Ab or isotype control Ab, followed by incubation with secondary HRP-labeled anti-rabbit Dako EnVision Ab (DakoCytomation). T-cell infiltration was quantified by counting four random 200× field powers of the turner sections, each […] in area."}, "[5]": {"target": "T1, CXCR4", "settings": "OT-I preincubated with AMD3100 5 μg/ml; flat-bottom wells; SIINFEKL-pulsed targets; ±SEM", "procedure": "Cytotoxicity of OT-I CD8+ cells was measured in a standard ^51Cr-release assay in round-bottom, wells as previously described (Brainard, D. M, et al. 2004. J Virol 78:5184-5193). The assay was also modified and performed in flat-bottom wells in order to determine the effects of CTL migration on killing efficacy in the context of target cells expressing SDF-1 (Hahne, M., et al. 1996 Science 274:1363-1366). B16/OVA.MSCV or B16/OVA.SDF1-high target cells were labeled with 100 μCi of ^51CR per 10^6 cells for 1 hour at 37° C. […] 30 μl of supernatant were harvested, and the radioactivity was counted in a γ-radiation counter. Cytotoxicity was expressed either as percent of lysis or as Lytic Unit 30 (LU30) as previously described (Brainard, D. M., et al. 2004. J Virol 78:5184-5193, Bryant, J., et al. 1992. J Immunol Meth 146:91-103). ^51Cr release assays were also performed in flat-bottom cells after preincubation of OT-I CD8+ T cells with the CXCR4 antagonist AMD3100 at concentrations of 0.25 and 1 μg/ml (Hatse, S. 2002 FEBS LETT 527:255-262)."}, "[6]": {"target": "T1, CXCR4", "source_text": "Pregnant females at day 15.5 of gestation were sacrificed by CO2 asphyxiation, and embryos were chilled on ice. Fetal thymuses were carefully removed under a dissecting microscope, taking care to keep the anatomically identifiable lobes joined together. Thymuses were placed in HBSS and kept on ice. Individual thymuses were gently transferred onto the surface of a polycarbonate membrane of a 6.5 mm transwell insert with a 3.3 μm pore size (Corning Incorporated Life Sciences Action, Mass.). DMEM (360 μl) supplemented with 2 mM glutamine, 100 U/ml penicillin, 100 μg/ml streptomycin, 2×10^5 M 2-mercaptoethanol, 0.1 mM non-essential amino acids, 10% HEPES, and 10% FBS (Sigma) was added to the lower chamber of the transwell. This amount of medium allowed the thymus to be at the interface of medium and air. The cultures were incubated at 37° C., in 5% CO2, and medium was replaced every 3 days. Thymic emigrants, were collected from each thymus by transferring each transwell insert containing one thymus onto to a new well 24 hours before harvesting emigrant present in the lower chamber for analysis. On the day of analysis, two thymuses were harvested, and emigrants were pooled from at least 4 thymic lobes from CXCR4^+/− CXCR4^−/− mice. For each time-point, CXCR4^+/− and CXCR4^−/− thymuses from one or two pregnant females bred at the same time were analyzed, aiming to minimize differences in the stage of maturation and total cell recovery. E15.5 WT (CXCR4^+/+) thymuses were obtained from fetuses from C57BL/16 mice breedings. […] FTOC from DPC 15.5 CXCR4+/− or CXCR4−/−embryos were also prepared as above, and AMD3100 (0.5 or 1 gg/ml; Sigma) was added to the lower chamber of day 14 FTOC.\nThymic lobes were harvested and transferred to a 4-ml round bottom polystyrene tube containing 0.4 mg/ml collagenase (from Clostridium histolyticum, type V, clostridiopeptidase A, SIGMA Chemicals), 10% FBS, EDTA0.2 mg/ml and 0.2 M phosphate. After 30 minutes incubation at 37° C., thymuses were disaggregated by gentle pipetting until no visible fragments remained. Cell suspensions were washed once in HBSS and 10% FBS to prevent further enzyme action. Cells were resuspended in PBS containing 0.1% bovine serum albumin and counted using a hemocytometer. After incubation for 30 minutes on ice with 0.5 gg of 2.4G2 antibody to block Fc binding, direct staining for three or four color analysis was performed. Cell suspensions were incubated for 15 minutes at 4° C. and then washed twice with staining buffer and analyzed using a FACSCalibur (BD Biosciences). Data analysis was performed with FlowJo software (Tree Star, Inc. Ashland, Oreg.). […] For annexin V and PI staining, an Annexin V-FITC Apoptosis Detection Kit I was used (BD Pharmingen). […] Mean log fluorescence intensity (MFI) values were obtained by subtracting the MFI of the isotype control from the MFI of the positively stained sample. To evaluate whether the differences between the peaks of cells were statistically significant with respect to controls, the Kolmogorov-Smirnov test for analysis of histograms was used."}, "[7]": {"target": "T1, CXCR4", "settings": "T-cells pre-incubated with 5 μg/ml AMD3100 for 30 min; 15 hours incubation", "procedure": "The CXCR4 receptor was blocked by pre-incubation of T-cells with 5 μg/ml AMD3100 (Sigma, St. Louis, Mo.) for 30 min at 37° C. as previously described (70). Trajectories of migration were determined for randomly selected T-cells using Metamorph software. Cell path tracking and mean chemotropic indices (MCI) as a measurement of directionality of movement towards or away from β-TC3 cells were calculated using MetaMorph and MatLab software as previously described where an MCI of +0.1 to −0.1 indicates chemokinesis, >+0.1 indicates chemotaxis and <−0.1 indicates fugetaxis (Moghe, P. V., et al. 1995 J Immunol Methods 180, 193-211; McCutcheon, M. (1946) Physiological Reviews 26, 319)."}, "[8]": {"target": "T1, CXCR4", "settings": "Matthys et al. 2001; cited from earlier work"}, "[9]": {"target": "T2, CXCR2 (Homo sapiens, UniProt P25025)", "T2 construct": "endogenous in cells; host or cells: neutrophils (isolated primary cells)", "T2 sequence (P25025 1-360)": "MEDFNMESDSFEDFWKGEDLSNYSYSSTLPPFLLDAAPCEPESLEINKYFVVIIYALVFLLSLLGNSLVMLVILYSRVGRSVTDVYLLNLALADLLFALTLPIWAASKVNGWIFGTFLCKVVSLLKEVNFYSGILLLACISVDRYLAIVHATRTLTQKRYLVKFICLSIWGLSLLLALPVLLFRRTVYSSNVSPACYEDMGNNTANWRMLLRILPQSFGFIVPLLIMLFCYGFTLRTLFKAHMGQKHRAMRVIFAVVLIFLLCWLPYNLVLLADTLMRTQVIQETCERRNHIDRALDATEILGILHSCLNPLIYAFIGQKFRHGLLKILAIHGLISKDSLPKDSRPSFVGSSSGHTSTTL", "test": "Sequential calcium flux in neutrophils to IL-8 after SB225002 pretreatment", "type": "cell-based", "settings": "1 pM SB225002; IL-8 1.2 μM and 1.2 μM or 600 nM and 1.2 μM; p<0.05", "experimental": "(§3) Calcium flux in neutrophils in response to IL-8 was measured as previously described (Mahon M. J., et al. 2004 J Biol Chem 279:23550-8). Briefly, isolated cells (˜10^7/ml) were transferred into a balanced salt solution (127 mM NaCl, 3.8 mM KCl, 1.2 mM KH2PO4, 1.2 mM CaCl2, 0.9 mM MgCl2, 5 mM glucose, and 10 mM HEPES, pH 7.4), incubated for 45 min at room temperature with 1.25 μM Fura-2 acetoxymethyl ester (Molecular Probes, Eugene, Oreg.), washed with the balanced salt solution, and unloaded for 15 min at room temperature. […] Calcium flux in response to indicated concentrations of IL-8 (Akahoshi T., et al. 1994 Lymphokine Cytokine Res 13:113-6) was measured by fluorescence of cells excited at 340 and 380 nm using a PTI Deltascan dual-wavelength fluorimeter (Photon Technologies Incorporated, Lawrenceville, N.J.), observed through a Nikon Diaphot 200 microscope (Melville, N.Y.) and Sensys charge-coupled device camera (Photometrics, Ltd., Tucson, Ariz.), and analyzed using the Poenie-Tsien ratio with Imagemaster 2 software (Photon Technologies Incorporated). Signaling responses to IL-8 at designated concentrations were calibrated against maximal calcium flux as determined by treatment with 5 μM ionomycin (Sigma). CXCR2 expression on neutrophils pre- and post-exposure to 120 nM, 1.2 μM and 2.4 μM IL-8 was determined using PE-labelled anti-CXCR2 IgGl antibody (R & D systems). […]"}, "[10]": {"tested_on": "Primary human neutrophils", "test": "Calcium flux in neutrophils in response to IL-8 (Fura-2)", "type": "cell-based", "settings": "calibrated against 5 μM ionomycin", "experimental": "as §3"}, "[11]": {"tested_on": "CXCR2", "test": "CXCR2 staining of neutrophils following IL-8 exposure", "type": "cell-based, Human", "settings": "single pulse of IL-8 at 12 nM, 120 nM, 1.2 μM and 2.4 μM; data not shown", "experimental": "as §3"}, "[12]": {"settings": "OT-I CD8+ T-cells incubated with 0.08 μg/ml AMD3100 before adoptive transfer"}, "[13]": {"settings": "OT-I CD8+ T-cells incubated with 0.25 μg/ml AMD3100 before adoptive transfer"}},
  "note": "Read-outs that look alike come from different tables or passages of the source.",
  "data": [
    {"compound": "c1cc(CN2CCCNCCNCCCNCC2)ccc1CN1CCCNCCNCCCNCC1", "note": "[AMD3100]", "values": [
      {"measurement": "average time to tumor growth to a size of 200 mm^2", "setting": "[1]", "result": "22 ± 2", "unit": "days"},
      {"measurement": "time for tumor growth to 200 mm^2", "setting": "[2]", "result": "23.6 ± 2.08", "unit": "days"},
      {"measurement": "ratio of T2 fit value in the right and left tumors", "setting": "[3]", "result": "1+0.12"},
      {"measurement": "ratio of T2 fit value in the right and left tumors", "setting": "[3]; listed as AM3100", "result": "0.55±0.13"},
      {"measurement": "CD3+ T-cell infiltration into B16/OVA.SDF-1-high tumors", "setting": "[4]; [12]", "result": "101±10.6", "unit": "cells/mm^2"},
      {"measurement": "number of T-cells infiltrating B16/OVA.MSCV tumors", "setting": "[4]; [12]", "result": "109±3.2", "unit": "cells/mm^2"},
      {"measurement": "CD3+ T-cell infiltration into B16/OVA.SDF-1-high tumors", "setting": "[4]; [13]", "result": "88.1±16.9", "unit": "cells/mm^2"},
      {"measurement": "number of T-cells infiltrating B16/OVA.MSCV tumors", "setting": "[4]; [13]", "result": "93±14.8", "unit": "cells/mm^2"},
      {"measurement": "LU30, killing of B16/OVA.SDF-1-high cells by OT-I CD8+ T-cells", "setting": "[5]", "result": "77×10^6±15"},
      {"measurement": "total number of cells in the thymus", "setting": "[6]; day 14 FTOC incubated 24 hours with 1 μg/ml AMD3100", "result": "349±99.5 ×10^3/lobe"},
      {"measurement": "SP CD4 thymocytes emigrating from thymus", "setting": "[6]; day 14 FTOC, 24 hours with 1 μg/ml AMD3100, mean±SEM", "result": "1.1±0.15 ×10^3/love"},
      {"measurement": "CD62L^high CD4 SP cells in the thymus vs untreated", "setting": "[6]; day 14 FTOC, 24 hours with 1 μg/ml AMD3100, p=0.017", "result": "retention of CD62L^high CD4 SP cells in the thymus"},
      {"measurement": "CD62L expression by SP CD8 thymocytes", "setting": "[6]; day 14 FTOC, 24 hours with 1 μg/ml AMD3100, p=0.56", "result": "not affected"},
      {"measurement": "total number of SP CD8 emigrants vs untreated FTOC", "setting": "[6]; day 14 FTOC, 24 hours with 1 μg/ml AMD3100, p=0.93", "result": "did not differ"},
      {"measurement": "T-cell migration away from SDF-1 secreting MSCV.SDF-1 bright cells", "setting": "[7]", "result": "failed to migrate away from SDF-1 secreting cells"},
      {"measurement": "intracellular Ca+ flux and chemotactic responses of murine splenocytes to SDF1", "setting": "[8]", "result": "inhibit"}
    ]},
    {"compound": "O=C(Nc1ccc([N+](=O)[O-])cc1O)Nc1ccccc1Br", "note": "[SB225002]", "values": [
      {"measurement": "sequential peaks of calcium flux following IL-8 stimulation", "setting": "[9]", "result": "significantly reduced"}
    ]},
    {"compound": "IL-8: human Interleukin-8 (72 amino acids; PeproTech), chemokine", "values": [
      {"measurement": "Peak calcium flux response (percentage of maximal calcium flux)", "setting": "[10]; 120 nM IL-8", "result": 48, "unit": "%+/−5.1"},
      {"measurement": "Peak calcium flux response (percentage of maximal calcium flux)", "setting": "[10]; 1.20 μM IL-8", "result": 83, "unit": "%+/−7.9"},
      {"measurement": "reduction of CXCR2 mean fluorescent intensity from baseline", "setting": "[11]", "result": "2- to 3 fold"}
    ]}
  ]
}
